We go through six compounds from patent US12186283B2, “Bismuth-thiol compositions and methods of use” (Microbion Corporation, priority 2018, dated 2025).

Converted amounts (≈) assume the structure as drawn. “And” between values parts separate entries of the source, which are not always exact repeats. Identical values can stand only once. Like-named read-outs stand apart in the source and are kept apart here.

In general, MIC refers to the lowest concentration found to suppress growth.

Experiment [1] has as its system Enterococcus spp. (E. faecalis, E. faecium). The experiment in a line: Broth microdilution MIC (Example 11). The format is cell-based. The following applies: VRE, VRE, LevR, CipR, EryR. A general note: Broth dilution looks for growth in wells or tubes with falling amounts of substance.
Experiment [2] relates to Escherichia coli. To be noted: E. coli MMX 102 (ATCC 25922); cited from earlier work.
For experiment [3], the system named is Pseudomonas aeruginosa. The following applies: P. aeruginosa MMX 103 (ATCC 27853); cited from earlier work.
For experiment [4], the system named is Staphylococcus aureus (MRSA). To be noted: S. aureus MMX 101 (ATCC 29213); cited from earlier work.
Experiment [5] concerns N. gonorrhoeae. The following applies: N. gonorrhoeae MMX 683 (ATCC 49226); cited from earlier work.
Experiment [6] has as its system Clostridium difficile. The following applies: C. difficile MMX 4381 (ATCC 700057), CC^I; cited from earlier work.
For experiment [7], the system named is P. aeruginosa. Put plainly: Checkerboard FIC assay, BisEDT with CF agents (Example 10). The format is cell-based, Pseudomonas aeruginosa. The following applies: for MICB: Meropenem MIC in combination with BisEDT.
The test system of experiment [8] is Burkholderia cepacia complex. The experiment is described as above. The class given is cell-based, Burkholderia spp.
Experiment [9] concerns beta-hemolytic streptococci (S. pyogenes, S. agalactiae). Put plainly: Broth microdilution MIC (Example 11). The format is cell-based, Streptococcus pyogenes, Streptococcus agalactiae. To be noted: read-out: MIC.
Experiment [10] deals with S. pneumoniae (pneumococci). To be noted: S. pneumoniae MMX 6837 (ATCC 49619); cited from earlier work.
For experiment [11], the system named is Bacteroides fragilis. The following applies: B. fragilis MMX 123 (ATCC 25285); cited from earlier work.
Experiment [12] has as its system Escherichia coli. Put plainly: Broth microdilution MIC (Example 11). The format is cell-based.
Experiment [13] concerns Klebsiella pneumoniae. The experiment in a line: Broth microdilution MIC (Example 11). The format is cell-based.
The subject of experiment [14] is Enterobacter cloacae. The experiment in a line: Broth microdilution MIC (Example 11). The class given is cell-based. The following applies: E. cloacae MMX 5981 (ATCC BAA-2468); NDM-1, LevR, MEMR, CAZR, GmR.
The test system of experiment [15] is Pseudomonas aeruginosa. Put plainly: Broth microdilution MIC (Example 11). The format is cell-based.
Experiment [16] has as its system Acinetobacter baumannii. The experiment in a line: Broth microdilution MIC (Example 11). The class given is cell-based.
The test system of experiment [17] is Staphylococcus aureus (MRSA). The experiment in a line: Broth microdilution MIC (Example 11). The class given is cell-based.
The mark [18] stands for this setting: Enterococcus faecium, E. faecium MMX 485, vanA, read-out: MIC.
The mark [19] stands for this setting: P. aeruginosa 6322, Meropenem in combination with BisEDT, checkerboard rows C-G.

In the case of `CC(C)(O/N=C(\C(=O)N[C@@H]1C(=O)N2C(C(=O)[O-])=C(C[n+]3ccccc3)CS[C@H]12)c1csc(N)n1)C(=O)O` [Ceftazidime], the MIC in experiment [1] (setting [18]) is more than 32 mg/L. Also, the “CLSI QC range (MIC)” value in experiment [2] is on record as “(0.06-0.5) μg/mL”; in [3], “(1-4)”; in experiment [4] it was “(4-16) μg/mL”.

`CO/N=C(\C(=O)N[C@@H]1C(=O)N2C(C(=O)O)=C(CSc3nc(=O)c(=O)[nH]n3C)CS[C@H]12)c1csc(N)n1` [Ceftriaxone]: the “MIC, CLSI QC range” value in [5] is “(0.004-0.015) μg/mL”.

With `CCc1c(Cl)c(O)c(Cl)c(O)c1C(=O)O[C@H]1[C@H](O)[C@H](OC)[C@H](OC/C2=C\C=C\C[C@H](O)/C(C)=C/[C@H](CC)[C@@H](O[C@@H]3OC(C)(C)[C@@H](OC(=O)C(C)C)[C@H](O)[C@@H]3O)/C(C)=C/C(C)=C/C[C@@H]([C@@H](C)O)OC2=O)O[C@@H]1C` [Fidaxomicin], the “MIC, CLSI QC range” value in [6] is on record as “(0.06-0.25) pg/mL”.

With `C[C@@H](O)[C@H]1C(=O)N2C(C(=O)O)=C(S[C@@H]3CN[C@H](C(=O)N(C)C)C3)[C@H](C)[C@H]12` [Meropenem, reference compound], the FICB in [7] (setting [19]) was 1; in experiment [7] (P. aeruginosa 8798, Meropenem FIC in combination with BisEDT, per checkerboard row), 1; in experiment [7] (P. aeruginosa 9108, Meropenem FIC in combination with BisEDT, per checkerboard row), 1; in [8] (B. cenocepacia 548, FIC of Meropenem in combination with BisEDT) it was 1; in experiment [8] (B. cenocepacia 813, FIC of Meropenem in combination with BisEDT), 1; in [8] (B. cepacia 546, Meropenem FIC in combination with BisEDT, per checkerboard row) it was 1 and 2. Also, the FICB in experiment [8] (B. cepacia 1793, Meropenem FIC in combination with BisEDT, per checkerboard row) was 2 and 4. Also, the “MICB (Drug B concentration in combination)” value in experiment [7] (setting [19]) was determined as 16 µg/mL. Further, the MICB was 32 µg/mL in experiment [7] (P. aeruginosa 8798, per checkerboard row); 1 µg/mL in experiment [7] (P. aeruginosa 9108, per checkerboard row); 4 µg/mL in experiment [8] (B. cenocepacia 548, MIC of Meropenem in combination with BisEDT); 4 µg/mL and 8 µg/mL in experiment [8] (B. cepacia 546, Meropenem MIC in combination with BisEDT, per checkerboard row); 8 µg/mL and 16 µg/mL in [8] (B. cepacia 1793, Meropenem MIC in combination with BisEDT, per checkerboard row); 4 µg/mL in experiment [8] (B. multivorans 1795, MIC of Meropenem in combination with BisEDT). In addition, the minimal inhibitory concentration (MIC) in experiment [8] (B. multivorans 1795, Meropenem alone, panel with BisEDT, read-out: Drug B MIC) is 4 mg/L; in experiment [1] (setting [18]) it was more than 64 mg/L; in experiment [9] (S. agalactiae MMX 3741, ERY^R CC^R), 0.03 mg/L (≈ 0.0782 µM); in experiment [9] (S. agalactiae MMX 3743, ERY^R CC^R), 0.06 mg/L (≈ 0.156 µM); in experiment [9] (S. agalactiae MMX 4077, ERY^R CC^R), 0.06 mg/L (≈ 0.156 µM); in experiment [9] (S. agalactiae MMX 4079, ERY^R CC^R Pen^R MEM^R), 8 mg/L (≈ 20.9 µM). For the same compound, in experiment [9] (S. agalactiae MMX 4086, ERY^R CC^R), the minimal inhibitory concentration (MIC) was determined as 0.06 mg/L (≈ 0.156 µM). In addition, the “CLSI QC range (MIC)” value in [2] is listed as “(0.008-0.06) μg/mL”; in [3] it was “(0.25-1)”. In addition, the “MIC, CLSI QC range” value in [10] is “(0.06-0.25) μg/mL”.

In the case of `Cc1ncc([N+](=O)[O-])n1CCO` [Metronidazole], the “MIC, CLSI QC range” value is “(0.25-1) pg/mL” in [11] and “(0.12-0.5) pg/mL” in experiment [6].

With Gentamicin, the MIC in experiment [12] (E. coli MMX 102 (ATCC 25922), QC) is 1 mg/L; in experiment [12] (E. coli MMX 5980 (ATCC BAA-2469), NDM-1, LevR, MEMR, CAZR, GmR) it was more than 64 mg/L; in experiment [12] (E. coli MMX 8423, ESBL, LevR, CAZR, GmR), 64 mg/L; in [12] (E. coli MMX 8424, ESBL, CAZR), 0.25 mg/L; in experiment [12] (E. coli MMX 8425, ESBL, LevR, CAZR, GmR), more than 64 mg/L; in experiment [13] (K. pneumoniae MMX 4622, KPC-2, MEMR, CAZR) it was 0.25 mg/L. For the same compound, the MIC in experiment [13] (K. pneumoniae MMX 4623, KPC-2, MEMR, CAZR, GMR) was 64 mg/L; in experiment [13] (K. pneumoniae MMX 4653, KPC-3, LevR, MEMR, CAZR), 1 mg/L; in experiment [13] (K. pneumoniae MMX 4683, KPC-2, LevR, MEMR, CAZR) it was 1 mg/L; in experiment [13] (K. pneumoniae MMX 4684, ESBL, MEMR), 0.25 mg/L; in [13] (K. pneumoniae MMX 4685, ESBL, LevR, MEMR, CAZR), 1 mg/L; in [13] (K. pneumoniae MMX 4694, KPC-3, LevR, MEMR, CAZR), 8 mg/L. Moreover, the minimal inhibitory concentration (MIC) in experiment [13] (K. pneumoniae MMX 5979, NDM-1, LevR, MEMR, CAZR, GmR) was more than 64 mg/L; in experiment [14], more than 64 mg/L; in [15] (P. aeruginosa MMX 103 (ATCC 27853), QC), 1 mg/L; in [15] (P. aeruginosa MMX 1381, MDR, LevR, CipR, MEMR, CAZR), 8 mg/L; in experiment [15] (P. aeruginosa MMX 2562, MDR, LevR, CipR, MEMR, CAZR), 8 mg/L; in experiment [15] (P. aeruginosa MMX 3991, MDR, LevR, CipR, MEMR, CAZR), 4 mg/L. Further, the minimum inhibitory concentration (MIC) in [15] (P. aeruginosa MMX 4654, IMP-7, LevR, CipR, MEMR, CAZR) is more than 64 mg/L; in experiment [15] (P. aeruginosa MMX 4697, VIM-2, LevR, CipR, MEMR, CAZR), 4 mg/L; in experiment [16] (A. baumannii MMX 2592, MDR, LevR, CipR, MEMR, CAZR, GmR) it was more than 64 mg/L; in experiment [16] (A. baumannii MMX 2593, MDR, LevR, CipR, MEMR, CAZR, GmR) it was more than 64 mg/L; in experiment [16] (A. baumannii MMX 3372, MDR, CipR, MEMI, CAZI), 0.5 mg/L; in [16] (A. baumannii MMX 3373, Sensitive), 0.12 mg/L. In addition, the minimal inhibitory concentration (MIC) in [16] (A. baumannii MMX 4651 (NCTC 13304), MDR, OXA-27, LevR, CipR, MEMR, CAZR, GmI) is 8 mg/L; in experiment [17] (S. aureus MMX 101 (ATCC 29213), QC, MSSA) it was 0.12 mg/L; in [17] (S. aureus MMX 5373, MRSA, LevR, CipR, CCR, EryR, OxR) it was 0.25 mg/L; in experiment [17] (S. aureus MMX 6311, MRSA, LevR, CipR, CCR, EryR, OxR) it was 0.25 mg/L; in experiment [17] (S. aureus MMX 9203, MRSA, LevR, CipR, EryR, OxR) it was 0.12 mg/L; in [17] (S. aureus MMX 9204, MRSA, LevR, CipR, EryR, OxR), 0.25 mg/L. The MIC in experiment [17] (S. aureus MMX 9205, MRSA, LevR, CipR, CCR, EryR, OxR) was 0.25 mg/L; in [1] (E. faecalis MMX 8960), more than 64 mg/L; in [1] (E. faecalis MMX 8961), 8 mg/L; in experiment [1] (E. faecalis MMX 8962) it was more than 64 mg/L; in experiment [1] (E. faecium MMX 485, vanA), more than 64 mg/L; in experiment [1] (E. faecium MMX 752, vanA), more than 64 mg/L. Also, the “CLSI QC range (MIC)” value in experiment [2] is on record as “(0.25-1) μg/mL”; in experiment [3], “(0.5-2)”; in experiment [4], “(0.12-1) μg/mL”.
